Measurements from ChEMBL document CHEMBL3243925, “Disteroidyl ethers. 1. Synthesis and oral long-lasting uterotrophic activity of 1,3,5(10)-estratrien-17-yl enol ethers of 3-keto steroids” (1977).
The source made the active and inactive calls. The calls are words filed in the database; no cut-off is given here.

Columns and labels:
Rattus norvegicus [1] = test: Uterotrophic activity in spayed Wistar rat assessed as autopsies by measuring uterus weight at 0.1 umol, po after 1 week (reference value: 15.1 +/- 0.51 mg); type: functional
Rattus norvegicus [2] = test: Uterotrophic activity in spayed Wistar rat assessed as autopsies by measuring uterus weight at 0.1 umol, po after 2 weeks (reference value: 15.9 +/- 0.50 mg); type: functional

SMILES	Activity (Rattus norvegicus [1])	Activity (Rattus norvegicus [2])
C#C[C@]1(OC(=O)CCCCCC)CC[C@H]2[C@@H]3CC=C4C=C(O[C@H]5CC[C@H]6[C@@H]7CCc8cc(OC9CCCC9)ccc8[C@H]7CC[C@]56C)CC[C@@H]4[C@H]3CC[C@@]21C	19.8 mg	15.2 mg
CCC(=O)O[C@H]1CC[C@H]2[C@@H]3CC[C@H]4CC(O[C@H]5CC[C@H]6[C@@H]7CCc8cc(OC(=O)c9ccccc9)ccc8[C@H]7CC[C@]56C)CC[C@]4(C)[C@H]3CC[C@]12C (stereo partly drawn)	inactive	inactive
C#C[C@]1(O)CC[C@H]2[C@@H]3CC=C4C=C(O[C@H]5CC[C@H]6[C@@H]7CCc8cc(OC(C)=O)ccc8[C@H]7CC[C@]56C)CC[C@@H]4[C@H]3CC[C@@]21C	39.2 mg	32.7 mg
C#C[C@@]1(O)CC[C@H]2[C@@H]3CC=C4C=C(O[C@H]5CC[C@H]6[C@@H]7CCc8cc(O)ccc8[C@H]7CC[C@]56C)CC[C@@H]4[C@H]3CC[C@@]21C	inactive	inactive
C[C@]12CC[C@@H]3c4ccc(OC(=O)c5ccccc5)cc4CC[C@H]3[C@@H]1CC[C@@H]2OC1=CC2=CC[C@@H]3[C@H](CC[C@]4(C)C(=O)CC[C@@H]34)[C@H]2CC1	59.8 mg	43.7 mg
C#C[C@]1(OC(C)=O)CC[C@H]2[C@@H]3CC=C4C=C(O[C@H]5CC[C@H]6[C@@H]7CCc8cc(OC(=O)CCC)ccc8[C@H]7CC[C@]56C)CC[C@@H]4[C@H]3CC[C@@]21C	26.5 mg	18.3 mg
CCC(=O)O[C@H]1CC[C@H]2[C@@H]3CC[C@@H]4C=C(O[C@H]5CC[C@H]6[C@@H]7CCc8cc(OC(=O)c9ccccc9)ccc8[C@H]7CC[C@]56C)CC[C@]4(C)[C@H]3CC[C@]12C	21.2 mg	19.9 mg
CC(=O)[C@H]1CC[C@H]2[C@@H]3CC=C4C=C(O[C@H]5CC[C@H]6[C@@H]7CCc8cc(OC(=O)c9ccccc9)ccc8[C@H]7CC[C@]56C)CC[C@]4(C)[C@H]3CC[C@]12C	26.3 mg	20.6 mg
CC(=O)[C@@H]1CC[C@H]2[C@@H]3CC=C4C=C(O[C@H]5CC[C@H]6[C@@H]7CCc8cc(OC(=O)c9ccccc9)ccc8[C@H]7CC[C@]56C)CC[C@@H]4[C@H]3CC[C@]12C	inactive	inactive
CC(=O)O[C@@]1(C)CC[C@H]2[C@@H]3CC=C4C=C(O[C@H]5CC[C@H]6[C@@H]7CCc8cc(OC(=O)c9ccccc9)ccc8[C@H]7CC[C@]56C)CC[C@]4(C)[C@H]3CC[C@@]21C	26.4 mg	21.5 mg
C[C@]12CCC(O[C@H]3CC[C@H]4[C@@H]5CCc6cc(O)ccc6[C@H]5CC[C@]34C)C[C@H]1CC[C@@H]1[C@@H]2CC[C@]2(C)[C@@H](O)CC[C@@H]12 (stereo partly drawn)	inactive	inactive
C#C[C@]1(OC(=O)CCCCCC)CC[C@H]2[C@@H]3CC=C4C=C(O[C@H]5CC[C@H]6[C@@H]7CCc8cc(OC(=O)C(C)C)ccc8[C@H]7CC[C@]56C)CC[C@@H]4[C@H]3CC[C@@]21C	37.2 mg	30.4 mg
C#C[C@]1(O)CC[C@H]2[C@@H]3CC=C4C=C(O[C@H]5CC[C@H]6[C@@H]7CCc8cc(O)ccc8[C@H]7CC[C@]56C)CC[C@@H]4[C@H]3CC[C@@]21C	40.5 mg	23.3 mg
C[C@]12CC[C@@H]3c4ccc(OC(=O)CCC(=O)O)cc4CC[C@H]3[C@@H]1CC[C@@H]2OC1=CC2=CC[C@@H]3[C@H](CC[C@]4(C)C(=O)CC[C@@H]34)[C@H]2CC1	60.7 mg	36.8 mg
